Data: ChEMBL document CHEMBL4689842, “EUbOPEN Chemogenomics Library wave 1” (2021)

Key:
Format in all cases: toxicity, cell-based
Fibroblast = assay: Incucyte cell viability with human fibroblast; conditions: 10 µM, compound concentration 10 uM
U2OS = assay: Incucyte cell viability with U2OS; conditions: human, 10 µM, compound concentration 10 uM
HEK-293T = assay: Incucyte cell viability with HEK293T; conditions: human, 10 µM, compound concentration 10 uM
[1] = 0 h, replicate number 1, timepoint 0 hours
[2] = 12 h, replicate number 1, timepoint 12 hours
[3] = 18 h, replicate number 1, timepoint 18 hours
[4] = 24 h, replicate number 1, timepoint 24 hours
[5] = 24 h, replicate number 2, timepoint 24 hours
[6] = 6 h, replicate number 1, timepoint 6 hours
[7] = 18 h, replicate number 2, timepoint 18 hours
[8] = 0 h, replicate number 2, timepoint 0 hours
[9] = 12 h, replicate number 2, timepoint 12 hours
[10] = 6 h, replicate number 2, timepoint 6 hours
Further: filed as whole numbers so only -1 and 0 and 1 occur.

Row | SMILES | Growth Rate (Fibroblast; [1]) | Growth Rate (Fibroblast; [2]) | Growth Rate (Fibroblast; [3]) | Growth Rate (Fibroblast; [4]) | Growth Rate (Fibroblast; [5]) | Growth Rate (U2OS; [1]) | Growth Rate (U2OS; [6]) | Growth Rate (U2OS; [2]) | Growth Rate (U2OS; [3]) | Growth Rate (U2OS; [7]) | Growth Rate (U2OS; [4]) | Growth Rate (HEK-293T; [1]) | Growth Rate (HEK-293T; [6]) | Growth Rate (HEK-293T; [2]) | Growth Rate (HEK-293T; [3]) | Growth Rate (HEK-293T; [4]) | Growth Rate (Fibroblast; [6]) | Growth Rate (Fibroblast; [7]) | Growth Rate (Fibroblast; [9]) | Growth Rate (U2OS; [10]) | further results
1 | CNc1nc(Nc2cnn([C@H]3CCN(C4COC4)C[C@@H]3F)c2Cl)ncc1C(F)(F)F | 0 | 1 | 1 | 0 | 1 | 1 | 0 | 1 | 1 | 0 | 1 | 0 | 0 | 0 | 0 | 0 |  |  |  |  | Growth Rate (U2OS; [5]): 0
2 | Cc1cc(C(=O)N2Cc3cnn(C)c3Nc3ccccc32)ccc1CNC(=O)N1CCC[C@H]1C(=S)N1CCCN(C)CC1 | 0 | 1 | 0 | 0 |  |  | 0 | 0 | 0 | 1 | 0 | 1 | 0 | 0 | 0 | 0 | 0 | 1 |  |  | Growth Rate (U2OS; [8]): 0; Growth Rate (U2OS; [9]): 1; Growth Rate (HEK-293T; [8]): 0; Growth Rate (HEK-293T; [10]): 1; Growth Rate (HEK-293T; [9]): 1
3 | Nc1nc(NCc2ccccc2)nc(-c2cccc(CO)c2)n1 [ZINC32547799] | 0 | 0 | 0 | 0 | 1 | 0 |  | 1 | 1 |  | 1 | 0 | 0 | 0 | 0 | 0 | 0 |  | 1 | 0 | 
4 | CN(C)CCCn1cc(C2=C(c3c[nH]c4ccccc34)C(=O)NC2=O)c2ccccc21 [GF-109203] | 0 | 1 | 0 | 0 |  |  |  | 1 | 0 |  | 0 | 0 | 0 | 0 | 0 | 0 |  | 1 |  |  | Growth Rate (U2OS; [8]): 0; Growth Rate (HEK-293T; [8]): 1
5 | Nc1nc(NCCc2ccc(O)cc2)nc2nc(-c3ccco3)nn12 [ZM-241385] | 0 | 1 | 1 | 1 |  |  | 0 | 0 | 0 | 1 | 0 | 1 | 0 | 0 | 0 | 0 |  | 0 | 0 |  | Growth Rate (Fibroblast; [8]): 1; Growth Rate (Fibroblast; [10]): 0; Growth Rate (U2OS; [8]): 0; Growth Rate (U2OS; [9]): 1; Growth Rate (U2OS; [5]): 1; Growth Rate (HEK-293T; [8]): 0
6 | CC1=C(C#N)C(c2ccc3c(c2)c(NC(=O)c2ccccc2C)nn3C)C(C#N)=C(C)N1 [BAY-974] |  | 1 | 1 | 1 |  |  | 1 | 1 | 1 |  | 1 | 0 |  |  |  |  | 1 |  |  | 0 | Growth Rate (Fibroblast; [8]): 0; Growth Rate (U2OS; [8]): 0; Growth Rate (U2OS; [9]): 0; Growth Rate (HEK-293T; [8]): 1; Growth Rate (HEK-293T; [5]): 1
7 | O=C(NCc1ccc(F)cc1)C1CCN(S(=O)(=O)c2cc(Cl)cc(Cl)c2)CC1 | 0 |  |  | 1 |  | 0 |  | 1 | 0 | 1 | 0 | 0 | 1 | 1 | 0 | 0 |  | 1 | 1 | 0 | Growth Rate (Fibroblast; [10]): 1; Growth Rate (U2OS; [9]): 0; Growth Rate (U2OS; [5]): 1; Growth Rate (HEK-293T; [9]): 0
8 | CN(CCOc1ccc(C[C@H](Nc2ccccc2C(=O)c2ccccc2)C(=O)O)cc1)c1ccccn1.O | 0 |  |  | 1 | 0 | 0 |  | 0 | 0 |  | 1 | 1 | 0 | 1 | 1 | 1 | 1 | 0 | 0 | 0 | Growth Rate (Fibroblast; [10]): 0; Growth Rate (U2OS; [5]): 0; Growth Rate (HEK-293T; [8]): 0; Growth Rate (HEK-293T; [10]): 1; Growth Rate (HEK-293T; [5]): 0
9 | CCC(=O)N1CC[C@H](Nc2ncnc3c2CN(c2cnc(OC)c(C(F)(F)F)c2)CC3)C1 [LENIOLISIB] |  | 0 | 0 | 0 |  | 0 | 0 | 0 | 0 |  | 0 |  |  |  |  |  | 0 |  |  |  | Growth Rate (Fibroblast; [8]): 1; Growth Rate (U2OS; [8]): 1; Growth Rate (U2OS; [9]): 1; Growth Rate (HEK-293T; [10]): 0; Growth Rate (HEK-293T; [9]): 1; Growth Rate (HEK-293T; [5]): 1
10 | Cc1cc(SCc2sc(-c3ccc(C(F)(F)F)c(F)c3)nc2C)ccc1OCC(=O)O | 0 | 1 | 1 | 1 | 0 | 0 |  | 1 | 1 |  | 1 | 0 | 1 | 1 | 0 | 0 | 1 |  | 0 | 1 | Growth Rate (HEK-293T; [9]): 0
11 | CO[C@@H]1COCC[C@@H]1N[C@@H]1CC[C@@](C(=O)N2CCc3ncc(C(F)(F)F)cc3C2)(C(C)C)C1 [MK-0812] | 0 | 1 | 1 | 1 | 0 | 0 |  | 1 | 1 |  | 1 | 0 | 1 | 1 | 1 | 1 | 1 | 0 |  | 0 | Growth Rate (Fibroblast; [8]): 1; Growth Rate (Fibroblast; [10]): 0; Growth Rate (HEK-293T; [10]): 0
12 | CC(C)CC(=O)N1CCc2nc(-c3ccc(Br)cc3)nc(N(C)Cc3ccccc3)c2C1 [THPP-1-NC] |  | 0 | 1 | 1 | 0 | 0 | 1 | 0 | 0 | 1 | 0 | 0 |  |  |  | 1 | 1 | 0 |  | 0 | Growth Rate (Fibroblast; [8]): 0; Growth Rate (Fibroblast; [10]): 0; Growth Rate (HEK-293T; [8]): 1; Growth Rate (HEK-293T; [10]): 0; Growth Rate (HEK-293T; [9]): 0; Growth Rate (HEK-293T; [7]): 1; Growth Rate (HEK-293T; [5]): 0
13 | CCCCc1nc(Cl)c(CO)n1Cc1ccc(-c2ccccc2-c2nn[nH]n2)cc1 [LOSARTAN] | 0 | 1 | 1 | 1 | 0 | 0 | 0 | 1 | 0 | 1 | 0 | 0 | 1 | 1 | 1 | 1 | 1 | 0 | 0 | 1 | Growth Rate (Fibroblast; [10]): 0; Growth Rate (U2OS; [5]): 1; Growth Rate (HEK-293T; [10]): 0; Growth Rate (HEK-293T; [9]): 0; Growth Rate (HEK-293T; [7]): 0; Growth Rate (HEK-293T; [5]): 0
14 | CCCCN(CCCC)C(=O)CN1C[C@@H](c2cc(OC)c3c(c2)OCO3)[C@H](C(=O)O)[C@H]1CC(C)(C)CCC.Cl |  | 0 | 0 | 0 | 1 |  |  | 0 | 0 | 1 | 0 | 0 | 0 | 0 | 0 | 0 | 0 | 1 | 1 | 0 | Growth Rate (Fibroblast; [8]): 0; Growth Rate (U2OS; [5]): 1
